From publication PMC7804859, “A metabolically stable apelin-17 analog decreases AVP-induced antidiuresis and improves hyponatremia” (Nature Communications, 2021)
Values joined by “and” are separate entries in the source; they are usually repeats but may differ in a detail not shown here. Identical values can stand only once.

Tests used:
[1] = test system: normonatremic Sprague-Dawley rats; test: Effects of s.c. administration on metabolic parameters in normonatremic rats; format: in vivo, rat
[2] = test system: phosphorylated AQP-2 in mpkCCD cells; test: dDAVP-induced phosphorylation of AQP-2 in mpkCCD cells (immunofluorescence); format: cell-based, mouse; conditions: 10 µmol/l compound with 10 nmol/l dDAVP, 1 h
Description: mpkCCD cells were seeded in 12 mm Transwell filters of 0.4 μm pore size at a density of 160,000 cells/cm^2 and were grown for 5 days. Twenty-four hours before the experiment, cells were starved with depletion media (1:1 (vol/vol) Ham’s F12:DMEM medium). […] The cell culture medium was removed and cells were fixed with 4% formaldehyde in 1× PBS for 10 min at 4 °C, and permeabilized with 0.5% PBS Triton X-100 for 5 min at 20 °C. Then, inserts were incubated in 5% PBS-BSA for 60 min at 20 °C to block non-specific protein binding. Inserts were subjected to immunostaining with a rabbit anti-AQP-2-pS269 antibody (dilution, 1/200, Phospho Solution, Cliniscience, France) and a mouse monoclonal anti-occludin antibody (dilution, 1/200, Santa Cruz, Cliniscience, France) for 16 h at 4 °C. Inserts were then incubated with goat anti-rabbit Alexa Fluor Plus 647 or goat anti-mouse Alexa Fluor plus 488 secondary antibodies (dilution, 1/500, Invitrogen) for 60 min at 20 °C. […] Slides were analyzed in the x–y and x–z axes under a ×63/1.4 Oil WD: 0.17 mm objective with a Zeiss Axioobserver Z1 inverted spinning-disk microscope equipped with a camera sCMOS Hamamatsu 2048 × 2048/pixel size: 6.45 × 6.45 µm^2 and the lasers (405 nm; 100 mW, 491 nm; 150 mW and 642 nm; 100 mW). […]

apelin-R and V2-R = test: dDAVP-induced cAMP production in CHO cells stably expressing both the apelin-R and the V2-R; format: cell-based
mpkCCD cells = test: dDAVP-induced cAMP production in mpkCCD cells; format: cell-based, mouse; conditions: 10 µmol/l compound, 10 nmol/l dDAVP, 60 min 37 °C
Description: (§1) 152 Supplementary Methods
(§2) 154 We quantified cAMP production with the cAMP dynamic 2 assay kit (Cisbio Bioassays,
(§3) 155 Codolet, France), which is based on homogeneous time-resolved fluorescence (HTRF)
(§4) 156 technology, as previously described 1. For cells expressing the Apelin-R, 2000 CHO cells/well
(§5) 157 stably expressing rat apelinR-EGFP (clone B70) were added to the 384-well plate and
158 stimulated with 5 µmol/l forskolin (FSK) and various concentrations (0.01 pmol/l to 100
For cells expressing the V2-R, HEK-
160 293T cells were transiently transfected with the human V2-R (cDNA Resource Center), after
161 48h, 4000 cells/well were added to white 384-well optiplates and stimulated either with 5
(§6) Cells were then lysed, and
(§7) 165 cAMP levels were determined in accordance with the kit manufacturer’s instructions.
(§8) 166 Stimulation was performed in stimulation buffer-IBMX (SBI) (Hank’s balanced salt solution
(§9) 167 (HBSS-Life Technology), 5 mmol/l Hepes, 0.1% BSA stabilizer (Perkin Elmer), 1 mmol/l
168 isobutylmethylxanthine (IBMX, Sigma Aldrich, pH 7.4)). For cAMP assay with mpkCCD
169 cells, the cells were grown on 12 mm Transwell filters (0.4 μm pore size, Corning Costar,
170 Cambridge, MA) until they reach confluency (4-5 days). For forskolin experiments, culture
171 media was replaced with SBI in apical and basolateral compartments. After 30 min of […]

rat apelin-R-EGFP = target: T1, rat apelin-R-EGFP (Rattus norvegicus, UniProt Q9JHG3); test: Inhibition of forskolin-induced cAMP production in CHO cells stably expressing rat apelin-R-EGFP (HTRF); format: cell-based; conditions: 5 µmol/l forskolin, 30 min 20 °C
T1 construct: expressed in transfected cells
T1 sequence (Q9JHG3 1-377): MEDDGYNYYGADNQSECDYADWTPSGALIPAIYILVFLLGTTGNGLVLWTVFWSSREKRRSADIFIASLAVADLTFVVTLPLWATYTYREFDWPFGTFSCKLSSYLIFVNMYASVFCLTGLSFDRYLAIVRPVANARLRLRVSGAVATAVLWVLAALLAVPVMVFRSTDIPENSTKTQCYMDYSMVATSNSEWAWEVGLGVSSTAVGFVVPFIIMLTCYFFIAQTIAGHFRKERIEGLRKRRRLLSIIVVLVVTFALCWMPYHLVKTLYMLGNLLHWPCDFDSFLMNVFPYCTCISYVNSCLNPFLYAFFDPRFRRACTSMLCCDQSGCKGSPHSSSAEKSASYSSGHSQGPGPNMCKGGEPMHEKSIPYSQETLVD
Description: as §1, §2, §3, §4, §5
158 stimulated with 5 µmol/l forskolin (FSK) and various concentrations (0.01 pmol/l to 100 […]
as §6, §7, §8, §9
168 isobutylmethylxanthine (IBMX, Sigma Aldrich, pH 7.4)). […]

[3] = test system: kidneys of normonatremic Sprague-Dawley rats; test: Kidney histology after 4 days of s.c. administration in rats; format: in vivo, rat; design: Tubular injury score: scale not given here
Description: 278 Kidneys were fixed in paraformaldehyde 4% overnight and processed for paraffin embedding.
279 Sections of 4 μm thickness were made and stained with the periodic acid-Schiff (PAS)
280 reagent and counterstained with hematoxylin. Histological analyzes were performed by a
281 trained nephrologist (AF), blinded of the treatment group. Tubular injury score was scored
283 vacuolization, epithelial cell shedding, and denuded tubular basement membrane, as follows:
285 calculated from twenty viewing fields selected randomly from the outer medulla and
286 corticomedullary junction and were examined at ×400 magnification. […]

[4] = test system: alert Sprague-Dawley rats; test: Mean arterial blood pressure in alert rats; format: in vivo, rat; design: SBP_Baseline / SBP_3h / SBP_24h: unit not given here
Description: 291 Blood pressure measurements
292 Rats were implanted with a right femoral artery catheter which was passed beneath the skin
293 under isoflurane anesthesia. Blood pressure (BP) was recorded in male alert Sprague Dawley
294 rats after a recovery period of at least 24 hours, with a PowerLab/Labchart system
295 (ADInstruments, Dunedin, New Zealand) connected to the arterial catheter via a pressure
296 transducer. Mean arterial BP (MABP) was calculated from the arterial pressure signal as
297 previously described 7. The compound was administered s.c. after baseline BP recording for at
298 least 30 minutes. BP was then measured at 3 and 24 hours after administration. At the end of
299 the experiment, animals were killed with a lethal dose of pentobarbital (Dolethal ®, 150

[5] = Brain apelin-immunoreactive levels in mice (RIA); format: in vivo, mouse
Description: Then cells were treated with 10
Results are expressed in femtomoles of cAMP produced
187 Apelin radioimmunoassay
189 until use for apelin RIA.
The supernatants were collected and
The samples were dried and dissolved in
201 centrifuged (17000 x g, 4°C, 20 min). The supernatant (4 ml) was collected, and mixed with
The columns were then treated as described in
Samples (0.1ml) w ere mixed with 125I-
212 used this radioligand instead of [Glp65, Nle75, Tyr77] [125I]-apelin13 since the substitution of
214 derivatives as described previously by 3,4.
216 incubated for 10 min at room temperature.
This antiserum identified the apelin present in the
Most of the apelin in human plasma was […]

[6] = 900 nmol/kg SC (tolvaptan 0.4.SC [sic]), normonatremic rats, single animals

For `CSCC[C@H](NC(=O)[C@@H]1CCCN1C(=O)CNC(=O)[C@H](CCCCN)NC(=O)[C@H](Cc1c[nH]cn1)NC(=O)[C@H](CO)NC(=O)[C@H](CC(C)C)NC(=O)[C@H](CCCNC(=N)N)NC(=O)[C@@H]1CCCN1C(=O)[C@H](CCCNC(=N)N)NC(=O)[C@H](CCC(N)=O)NC(=O)[C@H](CCCNC(=N)N)NC(=O)[C@H](CCCNC(=N)N)NC(=O)[C@H](Cc1ccccc1)NC(=O)[C@H](CCCCN)NC(=O)CCC(F)(F)C(F)(F)C(F)(F)C(F)(F)C(F)(F)C(F)(F)C(F)(F)C(F)(F)F)C(=O)N1CCC[C@H]1C(=O)N[C@@H](Cc1ccccc1)C(=O)O` [LIT01-196], the “Urine osmolality (3 hours)” value [1, 6] was 1384 and 748 and 940 and 740 and 756 and 732, the “Urine osmolality (6 hours)” value [1, 6] was 356 and 1028 and 440 and 1112 and 752 and 680 and the “Urine osmolality (24 hours)” value [1, 6] was 1095 and 2308 and 2437 and 1605 and 969 and 1304 and 1184 and 540 and 808 and 632 and 904 and 972 and 1020 and 1112 and 960 and 572 and 760 and 772 and 928 and 708 and 1220 and 1508. For the same compound, the “body weight change (weight loss)” value ([1]; 900 nmol/kg s.c., 24 h) was −1.8%, the “increase in water intake” value ([1]; 900 nmol/kg s.c., 24 h) was 11% and the “increase in water intake to food intake ratio” value ([1]; 900 nmol/kg s.c., 24 h) was 50%. The “increase in free water excretion fraction” value ([1]; 900 nmol/kg s.c., 24 h, n = 6) was 86%, the “decrease in food (normal chow) intake” value ([1]; 900 nmol/kg s.c., 24 h, non-significant) was 20% and the “increase in 24-h urine output relative to saline” value ([1]; 900 nmol/kg s.c., normonatremic rats) was 79%. For the same compound, the “decrease in urine osmolality” value ([1]; 900 nmol/kg s.c., normonatremic rats, 24 h) was 52%, the Water excretion fraction ([1]; LIT01-196 900 nmol/kg SC, individual animals (Fig. S4C source data)) was 0.8192 and 1.335 and 0.9524 and 0.95 and 0.8692 and 1.016 and the Sodium excretion fraction ([1]; LIT01-196 900 nmol/kg SC, individual animals (Fig. S4D source data)) was 0.6321 and 0.5196 and 0.512 and 0.526 and 0.4023 and 0.292. The Sodium excretion fraction ([1]; LIT01-196 900 nmol/kg, tolvaptan 6700 nmol/kg s.c., 24 h) was “not changed”, the “Water to food ratio” value ([1]; normonatremic rats, 900 nmol/kg SC, individual animal values (source data Fig. 4L)) was 1.9011 and 2.746 and 2.674 and 1.755 and 1.9235 and 1.556 and 1.545 and the “phosphorylation of AQP-2 (phospho-AQP-2 immunolabelling)” value [2] was “decrease in the phosphorylation of AQP-2”. The “dDAVP-induced cAMP production” value (apelin-R and V2-R) was “dose-dependently inhibits”, the “inhibition of dDAVP-induced cAMP production” value (mpkCCD cells) was 79% and the IC50 (rat apelin-R-EGFP) was 1.7 ± 0.5 nM. For the same compound, the Tubular injury score ([3]; 900 nmol/kg SC, individual animals (Fig. S5C source data)) was 0.105 and 0.1 and 0.05 and 0.15 and 0, the Glomerular injury score ([3]; 900 nmol/kg SC, individual animals (Fig. S5D source data)) was 0.09091 and 0.1053 and 0.1429 and 0.04762 and 0.05 and the “histological analysis of the kidneys” value ([3]; 900 nmol/kg s.c. for 4 consecutive days, rats) was “did not reveal any abnormality”. For the same compound, the SBP_3h ([4]; 900 nmol/kg SC, 3h, individual animals (Fig. S5A source data)) was 100.529 and 94.7199 and 92.7855 and 89.7756 and 91.9306, the SBP_24h ([4]; 900 nmol/kg SC, 24h, individual animals (Fig. S5A source data)) was 122.566 and 101.322 and 101.468 and 97.9055 and the SBP_Baseline ([4]; 900 nmol/kg SC, baseline, individual animals (Fig. S5A source data)) was 113.98 and 106.154 and 101.631 and 106.857 and 101.074. The “MABP 24 h after administration” value ([4]; 900 nmol/kg s.c., alert rats) was “did not significantly differ from baseline”, the “mean arterial blood pressure (MABP) 3 h after administration” value ([4]; 900 nmol/kg s.c., alert rats, n = 5, baseline 106 ± 2, p = 0.063) was 94 ± 2 mmHg and the apelin.brain ([5]; LIT01-196 900 nmol/kg, individual animals (Fig. S2C source data)) was 0.257 and 0.271 and 0.513 and 0.58. The “apelin-IR levels in the brain” value ([5]; mice, 30 min after s.c. 900 nmol/kg, saline 0.391 ± 0.045, n = 5) was 0.440 ± 0.073 pmol/brain.
